Drawing on patent publication US20240376094A2, “SELECTIVE BCL-XL PROTAC COMPOUNDS AND METHODS OF USE” (Les Laboratoires Servier, priority 2021, published 2024), this text covers IC50 and Emax for eleven compounds.

One assay concerns NCI-H1650. The assay is described as follows: CellTiter-Glo 3D proliferation assay, NCI-H1650 spheroids. The format is cell-based. Conditions: 5 days; for Emax: read-out: NCI-H1650 Span (Amax). Put shortly: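 Both lines grown in RPMI-1640 + 10% FBS. COR-L105 plated flat at 1,000 cells/well overnight; NCI-H1650 grown as spheroids, 3,000 cells/well, 72 h. Compounds at 0.508 nM-10 μM final for 5 days, 37° C. ATP read by CellTiter-Glo (3D version for spheroids); IC50 from variable-slope fit normalized to untreated cells.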

The subject of a further assay is MOLT-4 cells. The experiment in a line: MOLT-4 cell viability, CTG assay. The class given is cell-based. Conditions: Homo sapiens, MOLT-4, 48 h. Put shortly: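 Cells grown in RPMI 1640 with 10% FBS at 37° C, 5% CO2, then exposed to compounds for 48 h (11-point 5-fold dilution, triplicates). ATP measured by CellTiter-Glo luminescence; IC50 from four-parameter fit versus control, mean of ≥2 independent experiments.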

`Cc1ncsc1-c1ccc(CNC(=O)[C@@H]2CC(O)CN2C(=O)C(NC(=O)CCCCCCC(=O)N2CCN(CCOC34CC5(C)CC(C)(CC(Cn6ncc(-c7ccc(N8CCCc9c8nnc(Nc8nc%10ccccc%10s8)c9C)nc7C(=O)O)c6C)(C5)C3)C4)CC2)C(C)(C)C)cc1` (stereo in doubt) [Example 24, 6-[3-(1,3-benzothiazol-2-ylamino)-4-methyl-6,7-dihydro-5H-pyrido[2,3-c]pyridazin-8-yl]-3-[1-[[3-[2-[4-[8-[[(1S)-1-[(2S,4R)-4-hydroxy-2-[[4-(4-methylthiazol-5-yl)phenyl]methylcarbamoyl]pyrrolidine-1-carbonyl]-2,2-dimethyl-propyl]amino]-8-oxo-octanoyl]piperazin-1-yl]ethoxy]-5,7-dimethyl-1-adamantyl]methyl]-5-methyl-pyrazol-4-yl]pyridine-2-carboxylic acid] yielded an IC50 in the assay with NCI-H1650 of 92.9 nM. In the assay with NCI-H1650 (Homo sapiens, NCI-H1650, 120 h), 95 nM corresponded to half-maximal inhibition (IC50) and the Emax was found to be 89.1%. For `Cc1ncsc1-c1ccc([C@H](C)NC(=O)C2CC(O)CN2C(=O)C(NC(=O)CCCCCCCCCCCN2CCN(CC#Cc3ccc(OCCCc4sc(N5CCCc6c5nnc(Nc5nc7ccccc7s5)c6C)nc4C(=O)O)c(F)c3)CC2)C(C)(C)C)cc1` (stereo in doubt) [Example 31, 2-[3-(1,3-benzothiazol-2-ylamino)-4-methyl-6,7-dihydro-5H-pyrido[2,3-c]pyridazin-8-yl]-5-[3-[2-fluoro-4-[3-[4-[12-[[(1S)-1-[(2S,4R)-4-hydroxy-2-[[(1S)-1-[4-(4-methylthiazol-5-yl)phenyl]ethyl]carbamoyl]pyrrolidine-1-carbonyl]-2,2-dimethyl-propyl]amino]-12-oxo-dodecyl]piperazin-1-yl]prop-1-ynyl]phenoxy]propyl] thiazole-4-carboxylic acid], the half-maximal inhibitory concentration (IC50) with MOLT-4 cells was 7 nM. Take `Cc1ncsc1-c1ccc([C@H](C)NC(=O)[C@@H]2C[C@@H](O)CN2C(=O)[C@@H](NC(=O)CC23CC4CC(C2)CC(CC(=O)N2CCN(CC#Cc5ccc(OCCCc6sc(N7CCCc8c7nnc(Nc7nc9ccccc9s7)c8C)nc6C(=O)O)c(F)c5)CC2)(C4)C3)C(C)(C)C)cc1` [Example 42, 2-(3-(benzo[d]thiazol-2-ylamino)-4-methyl-6,7-dihydropyrido [2,3-c]pyridazin-8(5H)-yl)-5-(3-(2-fluoro-4-(3-(4-(2-((3S,5R)-3-(2-(((S)-1-((2S,4R)-4-hydroxy-2-(((S)-1-(4-(4-methylthiazol-5-yl)phenyl)ethyl)carbamoyl)pyrrolidin-1-yl)-3,3-dimethyl-1-oxobutan-2-yl)amino)-2-oxoethyl)adamantan-1-yl)acetyl)piperazin-1-yl)prop-1-yn-1-yl)phenoxy)propyl)thiazole-4-carboxylic acid]: in the assay on NCI-H1650 (Homo sapiens, NCI-H1650, 120 h), it took 3.4 nM to reach half-maximal inhibition (IC50) and the Emax amounted to 137%. The corresponding values for `Cc1ncsc1-c1ccc([C@H](C)NC(=O)[C@@H]2C[C@@H](O)CN2C(=O)[C@@H](NC(=O)CCCC(=O)N2CCN(CC#Cc3ccc(OCCCc4sc(N5CCCc6c5nnc(Nc5nc7ccccc7s5)c6C)nc4C(=O)O)c(F)c3)CC2)C(C)(C)C)cc1` [Example 35, 2-(3-(benzo[d]thiazol-2-ylamino)-4-methyl-6,7-dihydropyrido [2,3-c]pyridazin-8(5H)-yl)-5-(3-(2-fluoro-4-(3-(4-(5-(((S)-1-((2S,4R)-4-hydroxy-2-(((S)-1-(4-(4-methylthiazol-5-yl)phenyl)ethyl)carbamoyl)pyrrolidin-1-yl)-3,3-dimethyl-1-oxobutan-2-yl)amino)-5-oxopentanoyl)piperazin-1-yl)prop-1-yn-1-yl)phenoxy)propyl)thiazole-4-carboxylic acid] are 7.7 nM and 88.5%. The like results for `Cc1ncsc1-c1ccc(CNC(=O)[C@@H]2C[C@@H](O)CN2C(=O)[C@@H](NC(=O)CCCCCCCCCCC(=O)N2CCN(CC#Cc3ccc(OCCCc4sc(N5CCCc6c5nnc(Nc5nc7ccccc7s5)c6C)nc4C(=O)O)c(F)c3)CC2)C(C)(C)C)cc1` [Example 48, 2-(3-(benzo[d]thiazol-2-ylamino)-4-methyl-6,7-dihydropyrido [2,3-c]pyridazin-8(5H)-yl)-5-(3-(2-fluoro-4-(3-(4-(12-(((S)-1-((2S,4R)-4-hydroxy-2-((4-(4-methylthiazol-5-yl)benzyl)carbamoyl)pyrrolidin-1-yl)-3,3-dimethyl-1-oxobutan-2-yl)amino)-12-oxododecanoyl)piperazin-1-yl)prop-1-yn-1-yl)phenoxy)propyl)thiazole-4-carboxylic acid] were, in that order, 23.7 nM and 88.6%. The corresponding values for `Cc1ncsc1-c1ccc(CNC(=O)[C@@H]2C[C@@H](O)CN2C(=O)[C@@H](NC(=O)CCCCCCC(=O)N2CCN(CC#Cc3ccc(OCCCc4sc(N5CCCc6c5nnc(Nc5nc7ccccc7s5)c6C)nc4C(=O)O)c(F)c3)CC2)C(C)(C)C)cc1` [Example 33, 2-(3-(benzo[d]thiazol-2-ylamino)-4-methyl-6,7-dihydropyrido [2,3-c]pyridazin-8(5H)-yl)-5-(3-(2-fluoro-4-(3-(4-(8-(((S)-1-((2S,4R)-4-hydroxy-2-((4-(4-methylthiazol-5-yl)benzyl)carbamoyl)pyrrolidin-1-yl)-3,3-dimethyl-1-oxobutan-2-yl)amino)-8-oxooctanoyl)piperazin-1-yl)prop-1-yn-1-yl)phenoxy)propyl) thiazole-4-carboxylic acid] are 8.06 nM and 89.1%. The compound `Cc1ncsc1-c1ccc([C@H](C)NC(=O)[C@@H]2C[C@@H](O)CN2C(=O)[C@@H](NC(=O)CCCCCCCCCCCCCCCN(C)CCOC23CC4(C)CC(C)(CC(Cn5ncc(-c6ccc(N7CCCc8c7nnc(Nc7nc9ccccc9s7)c8C)nc6C(=O)O)c5C)(C4)C2)C3)C(C)(C)C)cc1` [Example 1, 6-[3-(1,3-benzothiazol-2-ylamino)-4-methyl-6,7-dihydro-5H-pyrido[2,3-c]pyridazin-8-yl]-3-[1-[[3-[2-[[16-[[(1S)-1-[(2S,4R)-4-hydroxy-2-[[(1S)-1-[4-(4-methylthiazol-5-yl)phenyl]ethyl]carbamoyl]pyrrolidine-1-carbonyl]-2,2-dimethyl-propyl]amino]-16-oxo-hexadecyl]-methyl-amino]ethoxy]-5,7-dimethyl-1-adamantyl]methyl]-5-methyl-pyrazol-4-yl]pyridine-2-carboxylic acid] gave an IC50 in the assay with MOLT-4 cells of 3.41 nM. Same read-out and setting: the figure for `Cc1ncsc1-c1ccc([C@H](C)NC(=O)[C@@H]2C[C@@H](O)CN2C(=O)[C@@H](NC(=O)CCCCCCCCN(C)CCOC23CC4(C)CC(C)(CC(Cn5ncc(-c6ccc(N7CCCc8c7nnc(Nc7nc9ccccc9s7)c8C)nc6C(=O)O)c5C)(C4)C2)C3)C(C)(C)C)cc1` [Example 5, 6-[3-(1,3-benzothiazol-2-ylamino)-4-methyl-6,7-dihydro-5H-pyrido[2,3-c]pyridazin-8-yl]-3-[1-[[3-[2-[[9-[[(1S)-1-[(2S,4R)-4-hydroxy-2-[[(1S)-1-[4-(4-methylthiazol-5-yl)phenyl]ethyl]carbamoyl]pyrrolidine-1-carbonyl]-2,2-dimethyl-propyl]amino]-9-oxo-nonyl]-methyl-amino]ethoxy]-5,7-dimethyl-1-adamantyl]methyl]-5-methyl-pyrazol-4-yl]pyridine-2-carboxylic acid] is 15.8 nM; for `Cc1ncsc1-c1ccc(CNC(=O)C2C[C@@H](O)CN2C(=O)C(NC(=O)CCCCCC(=O)N2CCN(CC#Cc3ccc(OCCCc4sc(N5CCCc6c5nnc(Nc5nc7ccccc7s5)c6C)nc4C(=O)O)c(F)c3)CC2)C(C)(C)C)cc1` (stereo in doubt) [Example 15, 2-[3-(1,3-benzothiazol-2-ylamino)-4-methyl-6,7-dihydro-5H-pyrido[2,3-c]pyridazin-8-yl]-5-[3-[2-fluoro-4-[3-[4-[7-[[(1S)-1-[(2S,4R)-4-hydroxy-2-[[4-(4-methylthiazol-5-yl)phenyl]methylcarbamoyl]pyrrolidine-1-carbonyl]-2,2-dimethyl-propyl]amino]-7-oxo-heptanoyl]piperazin-1-yl]prop-1-ynyl]phenoxy]propyl] thiazole-4-carboxylic acid] it is 22.6 nM. As for `Cc1ncsc1-c1ccc([C@H](C)NC(=O)[C@@H]2C[C@@H](O)CN2C(=O)[C@@H](NC(=O)CCCCCCCCCCC(=O)N2CCN(CC#Cc3ccc(OCCCc4sc(N5CCCc6c5nnc(Nc5nc7ccccc7s5)c6C)nc4C(=O)O)c(F)c3)CC2)C(C)(C)C)cc1` [Example 46, 2-(3-(benzo[d]thiazol-2-ylamino)-4-methyl-6,7-dihydropyrido [2,3-c]pyridazin-8(5H)-yl)-5-(3-(2-fluoro-4-(3-(4-(12-(((S)-1-((2S,4R)-4-hydroxy-2-(((S)-1-(4-(4-methylthiazol-5-yl)phenyl)ethyl)carbamoyl)pyrrolidin-1-yl)-3,3-dimethyl-1-oxobutan-2-yl)amino)-12-oxododecanoyl)piperazin-1-yl)prop-1-yn-1-yl)phenoxy)propyl)thiazole-4-carboxylic acid], in the assay with NCI-H1650 (Homo sapiens, NCI-H1650, 120 h), the IC50 was found to be 4.91 nM and the Emax is 83.2%. `Cc1ncsc1-c1ccc([C@H](C)NC(=O)[C@@H]2C[C@@H](O)CN2C(=O)[C@@H](NC(=O)CCCCCCCN(C)CCOC23CC4(C)CC(C)(CC(Cn5ncc(-c6ccc(N7CCCc8c7nnc(Nc7nc9ccccc9s7)c8C)nc6C(=O)O)c5C)(C4)C2)C3)C(C)(C)C)cc1` [Example 6, 6-[3-(1,3-benzothiazol-2-ylamino)-4-methyl-6,7-dihydro-5H-pyrido[2,3-c]pyridazin-8-yl]-3-[1-[[3-[2-[[8-[[(1S)-1-[(2S,4R)-4-hydroxy-2-[[(1S)-1-[4-(4-methylthiazol-5-yl)phenyl]ethyl]carbamoyl]pyrrolidine-1-carbonyl]-2,2-dimethyl-propyl]amino]-8-oxo-octyl]-methyl-amino]ethoxy]-5,7-dimethyl-1-adamantyl]methyl]-5-methyl-pyrazol-4-yl]pyridine-2-carboxylic acid] displayed an IC50 in the assay on MOLT-4 cells of 28.7 nM.
